Measurements as given in patent US12071424B2, “IRE1 small molecule inhibitors” (Cornell University, priority 2017, dated 2024).

Key:
[1] = target: T1, IRE1a (Homo sapiens, UniProt O75460); test: In vitro FRET assay (IRE1a cleavage of XBP1 RNA probe); assay type: biochemical; settings: 2 nM SignalChem IRE1a, tested as Formic Acid Salt (37: HCl Salt)
T1 construct: purchased SignalChem
How it was run: Human

[2] = tested on: IRE1a; test: IRE1a Endoribonuclease Nanoluciferase Assay (XBP1 luciferase reporter in 293T cells); assay type: cell-based, human; settings: Homo sapiens, HEK-293T, ER stressor, tested as Formic Acid Salt (37: HCl Salt)
How it was run: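 293T cells transiently transfected with a PGK-Luc2-P2A-XBP1u-Nanoluciferase-Pest reporter, replated after 6 h, then treated next day with ER stressors ± inhibitors. After lysis, firefly luminescence then nanoluciferase luminescence read sequentially (1000 ms integration each).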

T1 sequence (O75460 19-977): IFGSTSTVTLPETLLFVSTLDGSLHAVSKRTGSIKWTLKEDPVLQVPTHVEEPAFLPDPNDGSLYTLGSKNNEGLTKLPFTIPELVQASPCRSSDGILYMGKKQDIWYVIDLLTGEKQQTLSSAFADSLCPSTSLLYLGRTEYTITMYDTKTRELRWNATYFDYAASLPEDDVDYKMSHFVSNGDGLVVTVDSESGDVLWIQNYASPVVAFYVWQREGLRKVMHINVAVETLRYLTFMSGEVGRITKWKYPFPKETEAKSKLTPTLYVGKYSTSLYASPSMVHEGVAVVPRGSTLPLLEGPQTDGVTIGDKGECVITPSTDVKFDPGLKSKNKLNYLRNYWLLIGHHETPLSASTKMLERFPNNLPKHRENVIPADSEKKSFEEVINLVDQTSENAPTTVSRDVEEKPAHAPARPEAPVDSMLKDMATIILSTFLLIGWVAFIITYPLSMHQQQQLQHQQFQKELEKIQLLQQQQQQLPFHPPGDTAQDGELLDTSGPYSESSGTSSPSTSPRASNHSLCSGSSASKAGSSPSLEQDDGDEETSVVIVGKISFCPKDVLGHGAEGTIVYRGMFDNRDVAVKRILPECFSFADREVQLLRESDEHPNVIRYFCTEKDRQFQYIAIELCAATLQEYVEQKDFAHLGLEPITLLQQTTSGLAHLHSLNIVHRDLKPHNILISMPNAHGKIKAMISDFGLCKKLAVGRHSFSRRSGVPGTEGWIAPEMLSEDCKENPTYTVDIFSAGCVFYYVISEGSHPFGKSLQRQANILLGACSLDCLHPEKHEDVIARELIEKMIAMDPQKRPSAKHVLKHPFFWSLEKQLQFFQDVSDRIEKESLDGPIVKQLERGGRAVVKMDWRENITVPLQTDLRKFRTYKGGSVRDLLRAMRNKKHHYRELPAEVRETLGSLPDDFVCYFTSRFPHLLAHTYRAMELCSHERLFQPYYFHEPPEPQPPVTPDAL

IC50 [1] [nM] | EC50 [2] [nM] | SMILES
≤ 5 | ≤ 5 | CCc1cc(-c2ccc(NS(=O)(=O)c3ccccc3Cl)nc2C)cc2cnc(N[C@H]3CC[C@H](N(C)CC)CC3)nc12 [Compound 125, 2-chloro-N-(5-(8-ethyl-2-(((1r,4r)-4-(ethyl(methyl)amino)cyclohexyl)amino)quinazolin-6-yl)-6-methylpyridin-2-yl)benzenesulfonamide]
≤ 5 | ≤ 5 | CCc1cc(-c2cc(F)c(NS(=O)(=O)c3ccccc3Cl)nc2OC)cc2cnc(N[C@H]3CC[C@H](NC)CC3)nc12 [Compound 127, 2-chloro-N-(5-(8-ethyl-2-(((1r,4r)-4-(methylamino)cyclohexyl)amino)quinazolin-6-yl)-3-fluoro-6-methoxypyridin-2-yl)benzenesulfonamide]
≤ 5 | ≤ 5 | CCc1cc(-c2cc(F)c(NS(=O)(=O)c3ccccc3Cl)nc2OC)cc2cnc(N[C@H]3CC[C@H](N(C)C)CC3)nc12 [Compound 128, 2-chloro-N-(5-(2-(((1r,4r)-4-(dimethylamino)cyclohexyl)amino)-8-ethylquinazolin-6-yl)-3-fluoro-6-methoxypyridin-2-yl)benzenesulfonamide]
≤ 5 | ≤ 5 | CCc1cc(-c2ccc(NS(=O)(=O)c3ccccc3Cl)nc2C)cc2cnc(N[C@H]3CC[C@H](N(C)CC4CCC4)CC3)nc12 [Compound 130, 2-chloro-N-(5-(2-(((1r,4r)-4-((cyclobutylmethyl)(methyl)amino)cyclohexyl)amino)-8-ethylquinazolin-6-yl)-6-methylpyridin-2-yl)benzenesulfonamide]
≤ 5 | ≤ 5 | Cc1nc(NS(=O)(=O)c2ccccc2Cl)ccc1-c1cc(C(C)(F)F)c2nc(N[C@H]3CC[C@H](N(C)C)CC3)ncc2c1 [Compound 131]
≤ 5 | ≤ 5 | CCc1cc(-c2ccc(NS(=O)(=O)c3ccccc3Cl)nc2C)cc2cnc(N[C@H]3CC[C@H](N(C)CCOC)CC3)nc12 [Compound 132, 2-chloro-N-(5-(8-ethyl-2-(((1r,4r)-4-((2-methoxyethyl)(methyl)amino)cyclohexyl)amino)quinazolin-6-yl)-6-methylpyridin-2-yl)benzenesulfonamide]
≤ 5 | ≤ 5 | COc1nc(NS(=O)(=O)c2ccccc2Cl)ccc1-c1cc(C)c2nc(N[C@H]3CC[C@H](N(C)C)CC3)ncc2c1 [Compound 133, 2-chloro-N-(5-(2-(((1r,4r)-4-(dimethylamino)cyclohexyl)amino)-8-methylquinazolin-6-yl)-6-methoxypyridin-2-yl)benzenesulfonamide]
≤ 5 | ≤ 5 | COc1nc(NS(=O)(=O)c2ccccc2Cl)ccc1-c1cc(C(F)(F)F)c2nc(N[C@H]3CC[C@H](N(C)C)CC3)ncc2c1 [Compound 135, 2-chloro-N-(5-(2-(((1r,4r)-4-(dimethylamino)cyclohexyl)amino)-8-(trifluoromethyl)quinazolin-6-yl)-6-methoxypyridin-2-yl)benzenesulfonamide]
≤ 5 | ≤ 5 | COCc1cc(-c2ccc(NS(=O)(=O)c3ccccc3Cl)nc2OC)cc2cnc(N[C@H]3CC[C@H](N(C)C)CC3)nc12 [Compound 137, 2-chloro-N-(5-(2-(((1r,4r)-4-(dimethylamino)cyclohexyl)amino)-8-(methoxymethyl)quinazolin-6-yl)-6-methoxypyridin-2-yl)benzenesulfonamide]
≤ 5 | 100 to 10000 | CCc1cc(-c2ccc(NS(=O)(=O)c3ccccc3Cl)nc2OC)cc2cnc(N[C@H]3CC[C@@H](N(C)C)CC3)nc12 [Compound 141, 2-chloro-N-(5-(2-(((1s,4s)-4-(dimethylamino)cyclohexyl)amino)-8-ethylquinazolin-6-yl)-6-methoxypyridin-2-yl)benzenesulfonamide]
≤ 5 | ≤ 5 | COc1nc(NS(=O)(=O)c2ccccc2Cl)c(F)cc1-c1cc(C)c2nc(N[C@H]3CC[C@H](N(C)C)CC3)ncc2c1 [Compound 145, 2-chloro-N-(5-(2-(((1r,4r)-4-(dimethylamino)cyclohexyl)amino)-8-methylquinazolin-6-yl)-3-fluoro-6-methoxypyridin-2-yl)benzenesulfonamide]
≤ 5 | ≤ 5 | COc1nc(NS(=O)(=O)c2ccccc2Cl)ccc1-c1cc(F)c2nc(N[C@H]3CC[C@H](N(C)C)CC3)ncc2c1 [Compound 148, 2-chloro-N-(5-(2-(((1r,4r)-4-(dimethylamino)cyclohexyl)amino)-8-fluoroquinazolin-6-yl)-6-methoxypyridin-2-yl)benzenesulfonamide]
≤ 5 | 5 to 50 | COc1nc(NS(=O)(=O)c2ccccc2Cl)c(F)cc1-c1ccc2nc(N[C@H]3CC[C@H](N(C)C)CC3)ncc2c1 [Compound 149, 2-chloro-N-(5-(2-(((1r,4r)-4-(dimethylamino)cyclohexyl)amino)quinazolin-6-yl)-3-fluoro-6-methoxypyridin-2-yl)benzenesulfonamide]
≤ 5 | 5 to 50 | CN[C@H]1CC[C@H](Nc2ncc3cc(-c4cc(F)c(NS(=O)(=O)c5ccccc5Cl)nc4OC)ccc3n2)CC1 [Compound 150, 2-chloro-N-(3-fluoro-6-methoxy-5-(2-(((1r,4r)-4-(methylamino)cyclohexyl)amino)quinazolin-6-yl)pyridin-2-yl)benzenesulfonamide]
≤ 5 | ≤ 5 | CCc1cc(-c2ccc(NS(=O)(=O)c3cccc(Cl)c3Cl)nc2C)cc2cnc(N[C@H]3CC[C@H](N(C)C)CC3)nc12 [Compound 152, 2,3-dichloro-N-(5-(2-(((1r,4r)-4-(dimethylamino)cyclohexyl)amino)-8-ethylquinazolin-6-yl)-6-methylpyridin-2-yl)benzenesulfonamide]
≤ 5 | 5 to 50 | Cc1nc(NS(=O)(=O)c2ccccc2Cl)c(F)cc1-c1ccc2nc(N[C@H]3CC[C@H](N(C)C)CC3)ncc2c1 [Compound 153, 2-chloro-N-(5-(2-(((1r,4r)-4-(dimethylamino)cyclohexyl)amino)quinazolin-6-yl)-3-fluoro-6-methylpyridin-2-yl)benzenesulfonamide]
≤ 5 | ≤ 5 | CCc1cc(-c2cnc(NS(=O)(=O)c3ccccc3Cl)nc2OC)cc2cnc(N[C@H]3CC[C@H](N(C)C)CC3)nc12 [Compound 154, 2-chloro-N-(5-(2-(((1r,4r)-4-(dimethylamino)cyclohexyl)amino)-8-ethylquinazolin-6-yl)-4-methoxypyrimidin-2-yl)benzenesulfonamide]
≤ 5 | 50 to 100 | COc1nc(NS(=O)(=O)c2ccccc2Cl)c(F)cc1-c1cc(F)c2nc(N[C@H]3CC[C@H](N(C)C)CC3)ncc2c1 [Compound 155, 2-chloro-N-(5-(2-(((1r,4r)-4-(dimethylamino)cyclohexyl)amino)-8-fluoroquinazolin-6-yl)-3-fluoro-6-methoxypyridin-2-yl)benzenesulfonamide]
≤ 5 | ≤ 5 | CCc1cc(-c2ncc(NS(=O)(=O)c3ccccc3Cl)nc2OC)cc2cnc(N[C@H]3CC[C@H](N(C)C)CC3)nc12 [Compound 157, 2-chloro-N-(5-(2-(((1r,4r)-4-(dimethylamino)cyclohexyl)amino)-8-ethylquinazolin-6-yl)-6-methoxypyrazin-2-yl)benzenesulfonamide]
≤ 5 | ≤ 5 | CCc1cc(-c2ccc(NS(=O)(=O)c3cccc(F)c3Cl)nc2C)cc2cnc(N[C@H]3CC[C@H](N(C)C)CC3)nc12 [Compound 158, 2-chloro-N-(5-(2-(((1r,4r)-4-(dimethylamino)cyclohexyl)amino)-8-ethylquinazolin-6-yl)-6-methylpyridin-2-yl)-3-fluorobenzenesulfonamide]
≤ 5 | 5 to 50 | CCc1cc(-c2nnc(NS(=O)(=O)c3ccccc3Cl)cc2OC)cc2cnc(N[C@H]3CC[C@H](N(C)C)CC3)nc12 [Compound 159, 2-chloro-N-(6-(2-(((1r,4r)-4-(dimethylamino)cyclohexyl)amino)-8-ethylquinazolin-6-yl)-5-methoxypyridazin-3-yl)benzenesulfonamide]
≤ 5 | ≤ 5 | CCc1cc(-c2ccc(NS(=O)(=O)c3cccc(C)c3Cl)nc2C)cc2cnc(N[C@H]3CC[C@H](N(C)C)CC3)nc12 [Compound 160, 2-chloro-N-(5-(2-(((1r,4r)-4-(dimethylamino)cyclohexyl)amino)-8-ethylquinazolin-6-yl)-6-methylpyridin-2-yl)-3-methylbenzenesulfonamide]
≤ 5 | ≤ 5 | CCc1c(F)c(-c2ccc(NS(=O)(=O)c3ccccc3Cl)nc2C)cc2cnc(N[C@H]3CC[C@H](N(C)C)CC3)nc12 [Compound 161, 2-chloro-N-(5-(2-(((1r,4r)-4-(dimethylamino)cyclohexyl)amino)-8-ethyl-7-fluoroquinazolin-6-yl)-6-methylpyridin-2-yl)benzenesulfonamide]
≤ 5 | ≤ 5 | CCc1c(F)c(-c2cc(F)c(NS(=O)(=O)c3ccccc3Cl)nc2C)cc2cnc(N[C@H]3CC[C@H](N(C)C)CC3)nc12 [Compound 162, 2-chloro-N-(5-(2-(((1r,4r)-4-(dimethylamino)cyclohexyl)amino)-8-ethyl-7-fluoroquinazolin-6-yl)-3-fluoro-6-methylpyridin-2-yl)benzenesulfonamide]
≤ 5 | ≤ 5 | CCc1c(F)c(-c2cc(F)c(NS(=O)(=O)c3ccccc3Cl)nc2OC)cc2cnc(N[C@H]3CC[C@H](N(C)C)CC3)nc12 [Compound 163, 2-chloro-N-(5-(2-(((1r,4r)-4-(dimethylamino)cyclohexyl)amino)-8-ethyl-7-fluoroquinazolin-6-yl)-3-fluoro-6-methoxypyridin-2-yl)benzenesulfonamide]
